Experimental data from US8802103B2, “Compositions and methods for diagnosing and treating cancer” (OncoMed Pharmaceuticals, Inc., priority 2007, dated 2014).

Tested on: UM-C17 colon tumor cells
Assay: UM-C17 colon tumor xenograft growth
Assay type: in vivo, NOD/SCID mice
Details: 10 mg/kg i.p. two times per week from day 19, tumors approximately 100 mm^3
Experimental: In certain embodiments, anti-Jagged 1 antibodies were analyzed for their ability to reduce the growth of UM-C17 colon tumor cells. Dissociated UM-C17 cells (10,000 per animal) were injected subcutaneously into the right flank region of 6-8 week old NOD/SCID mice. Day 19 after tumor cell injection, when tumors were approximately 100 mm^3, animals were injected intraperitoneal (i.p.) with either 10 mg/kg 64M14 anti-Jagged 1 antibodies, 10 mg/kg 64M14 anti-Jagged 1 antibody and 10 mg/kg Avastin (anti-VEGF), Avastin alone, or control antibody anti-DNP (dinitrophenol or anti-hapten) (n=10 per group) two times per week for the duration of the experiment. Both treatment with 64M14 antibodies and Avastin reduced tumor growth by close to 50% compared to controls (FIG. 4).

With Avastin: anti-VEGF antibody the “reduction of tumor growth compared to control antibodies” value was roughly 50%.
